Assay results from patent US5849753A, “Pyridyl imidazole derivatives and processes for the preparation thereof” (Korea Research Institute of Chemical Technology, priority 1994, dated 1998).

Tests used:
[1] = test system: unanesthetized dogs; test: Blood pressure lowering effect in unanesthetized dogs (furosemide treated); type: in vivo, dog; set-up: Maximum blood pressure lowering effect in a dog: unit not given here; conditions: oral; for Blood pressure variation with time: 3 mg
Procedure: A number of dogs were fed freely in a feeding room and those weighing 7 to 12 kg in good health were selected regardless of their gender.
The test dogs were anesthetized with 30 mg/kg of pentobarbital sodium by intravenous injection and the left femoral artery and femoral vein were separated carefully. Silicone catheter, specially prepared and filled with saline treated with heparin(1,000 IU/ml), was cannulated into the blood vessels. After the surgery, the dogs were constrained to measure their blood pressure continuously with Gould 2000 physiograph adapted to a Grass P23 XL pressure transducer; and their heart rates were monitored with ECG/Biotacho amplifier. The dogs were tested at least 2 days after the surgery.
10 mg/kg of furosemide was injected intramuscularly 18 hours(in case of intravenous injection, 2 hours) before the beginning of the test (administration of the test compound) to improve the activity of renin in blood plasma. After the injection of furosemide, neither food nor water was provided. The test compound was suspended in Tween 80 and administered in an amount of 20 mg/kg orally. The blood pressure and heart rate were measured up to 8 hours after the administration of each test compound.
The maximum blood pressure lowering effect of the present compounds and the control compounds were determined in different amounts of administration using the same method as […]

[2] = test system: renal hypertensive rat; test: Blood pressure lowering effect in renal hypertension (renal hypertensive rats, intravenous or oral); type: in vivo, male Sprague-Dawley rats; conditions: 3 mg, read-out: Maxium Blood Pressure Lowering Effect(%)
Description: (§1) To induce renal hypertension, left renal artery of 4 week-old male Sprague-Dawley rats(from The Korea Research Institute of Chemical Technology) was ligated. The rats were anesthetized with ether and the surgical region on the left abdomen of the rat was shaved, disinfected, and then incised about 1 cm vertically. The renal artery near abdominal aorta was isolated carefully from surrounding tissues and veins, and then ligated completely with a suture(4/0 sterile surgical silk). The muscular strata and skin of the surgical area were sutured with a suture(4/0 sterile surgical silk). The surgical region was disinfected to prevent infection and thereafter, 200 to 250 mg/Kg/day of cephazolin sodium was injected intramuscularly for 2 days. 6 to 8 days after the ligation, rats showing systolic pressure of more than 180 mmHg were selected for renal hypertension test. The blood pressure was determined by a tail-cuff method from the tail under unanesthetized condition(Gerold, M. et al., Arzneimittrel-Forsch, 18, 1285(1968)).
(§2) Each of the compounds to be tested was administered intravenously or orally into the renal hypertensive rat. The blood pressure of the rats was determined by direct method(Chiu, A. T. et al., J. Pharmacol. Exp. Ther. 250, 867(1989)) using a catheter. The rats were anesthetized with ketamine hydrochloride(125 mg/kg, i.p.) and a catheter was filled with saline and inserted into a carotid artery and carotid vein. The surgical area was sutured with a metal clip. The rats were relaxed at least 3 hours and the catheter in the carotid artery was adapted to an isotec pressure transducer to determine their blood pressure and heart rate with a physiograph(Linearcorder WR3310). After the blood pressure was stabilized, the test compound was administered intravenously or orally. For intravenous administration, the administered volume and washing volume were 1.0 ml/Kg and 0.2 ml, respectively. The blood pressure and heart rate were measured in regular intervals up to 24 hours after the administration of the test compound and compared with those measured after the administration of the control compound Losartan.
(§3) The test compound was dissolved in 0.05N KOH for intravenous administration and suspended in Tween 80 for oral administration.

[3] = test system: renal hypertensive rat; test: Blood pressure lowering effect on oral administration to rats at several doses; type: in vivo, male Sprague-Dawley rats
Description: as §1, §2, §3
(iii) Blood pressure lowering effect The present compounds, Losartan(Dup 753) and the Merck compound were administrated orally to rats in 10, 3, 1, 0.3 and 0.1 mg/kg under the same condition as in (ii) and the blood pressure lowering effect was determined.

[4] = test system: angiotensin II receptor; test: Angiotensin II Receptor Binding Assay ([3H] angiotensin II binding inhibition); conditions: [3H] angiotensin II ligand; 60 minutes, 25° C.; test concentration not given
Procedure: In accordance with the procedure disclosed in Chiu, A. T. et al., Eur. J. Pharm., 157, 13(1981), a ligand marked with a radioisotope was reacted with an angiotensin II receptor and the reactant was filtered with a glass fiber to remove unreacted ligand. After washing the filter, the amount of the remaining isotope was measured to determine the binding activity of the ligand, as described below in detail.
Sprague-Dawley rats and Wistar rats of 250 to 350 g(from The Korea Research Institute of Chemical Technology) were tested and the test procedures were carried out at 4° C., unless otherwise specified. Adrenal gland was separated from the Sprague-Dawley rats(liver, in the case of Wistar rats) into cortex and medulla. The separated adrenal cortex and medulla were washed with a sucrose buffer solution (0.2M sucrose, 1 mM EDTA, 10 mM Tris, pH 7.2) and homogenized in the same buffer solution by using a Teflon pestle and a Brinkmann homogenizer. The homogenates were centrifuged at 3,000 Xg for 10 minutes to remove precipitates and further centrifuged at 12,000 Xg for 13 minutes. The final supernatants were centrifuged at 102,000 Xg for 1 hour to obtain precipitates, which were washed with a Tris buffer solution(50 mM Tris, 5 mM MgCl2, pH 7.2) and re-centrifuged at 102,000 Xg for 1 hour. The resulting precipitates were immediately processed at the following step or stored at -70° C.
The precipitates were suspended in a Tris buffer solution. The amount of protein was determined by using a Bio-Rad DC protein analyzing kit and the protein concentration was adjusted to the amounts of: 0.2 to 0.3 mg/ml(Sprague-Dawley rat: adrenal cortex), 1.5 to 2.0 mg/ml(Sprague-Dawleyrat: adrenal medulla), and 1.5 to 2.0 mg/ml(Wistar rat: liver). To the suspension, bovine serum albumin(BSA) was added to a concentration of 0.25 wt % and the resultant was immediately processed at the following step or stored at -70° C.
(ii) Measurement of angiotensin II receptor binding capacity 50 μl(based on ligand) of [^3 H] angiotensin II(NEN, NET-446) and 10 μl of each of the test compounds with various concentrations were added to the buffer solution(50 mM Irris(pH 7.2), 5 mM MgCl2, 0.25% BSA) to adjust the final volume to be 0.5 ml. 100 μl of the receptor suspension was added thereto and the resulting solution was reacted for 60 minutes while stirring in a water bath at 25° C. 3 ml of cold buffer solution for analysis was added to cease the reaction. The isotope which was bound to the receptor was isolated from the resultant by using Brandel Cell Harvester System with Whatman glass fiber GF/C. After washing the filter, the radioactivity of the filter was determined by using a liquid scintillation counter. Binding inhibition(%) of the test compound was calculated as follows:
Binding Inhibition(%)=[{(T--B)-(S--B)}/(T--B)]×100
wherein T is cpm of the reaction product untreated with the test compound, S is cpm of the reaction product treated with the test compound, and B is cpm of blank test.

## CCCCc1nc(Cl)c(CO)n1Cc1ccc(-c2ccccc2-c2nn[nH]n2)cc1 [Losartan(Dup 753), Losartan, reference compound]
[1]; 3 mg/kg
  Maximum blood pressure lowering effect in a dog: 13
[1]; 10 mg/kg
  Maximum blood pressure lowering effect in a dog: 23
[1]; dogs, 0.5 hr
  Blood pressure variation with time: -11.0%
[1]; dogs, 1 hr
  Blood pressure variation with time: -12.3%
[1]; dogs, 2 hr
  Blood pressure variation with time: -12.8%
[1]; dogs, 4 hr
  Blood pressure variation with time: -9.9%
[1]; dogs, 6 hr
  Blood pressure variation with time: -10.1%
[1]; dogs, 8 hr
  Blood pressure variation with time: -8.2%
[1]; dogs, as shown in Table 3
  maximum blood pressure lowering effect lasted up to (after the administration): up to 2 hours
[2]
  change in vivo at 3 mg: -30%
[3]; 3 mg/kg
  blood pressure lowering effect: 30%
[3]; 10 mg/kg
  blood pressure lowering effect: 46%
[4]
  Binding Inhibition(%): 48.0%

## CCCCc1nc2cc(-c3ccccc3)c(C(OC)OC)nc2n1Cc1ccc(-c2ccccc2-c2nnn[nH]2)cc1 [Example 1, 2-butyl-5-dimethoxymethyl-6-phenyl-3-[2'-(1H-tetrazol-5-yl)biphenyl-4-ylmethyl]-3H-imidazo[4,5-b]pyridine]
[1]; 1 mg/kg
  Maximum blood pressure lowering effect in a dog: 15
[1]; 3 mg/kg
  Maximum blood pressure lowering effect in a dog: 35
[1]; 10 mg/kg
  Maximum blood pressure lowering effect in a dog: 41
[1]; dogs, 0.5 hr
  Blood pressure variation with time: -31.3%
[1]; dogs, 1 hr
  Blood pressure variation with time: -32.6%
[1]; dogs, 2 hr
  Blood pressure variation with time: -34.0%
[1]; dogs, 4 hr
  Blood pressure variation with time: -33.0%
[1]; dogs, 6 hr
  Blood pressure variation with time: -30.1%
[1]; dogs, 8 hr
  Blood pressure variation with time: -25.9%
[2]
  change in vivo at 3 mg: -40%
[3]; 1 mg/kg
  blood pressure lowering effect: 25%
[3]; 3 mg/kg
  blood pressure lowering effect: 38%
[4]
  Binding Inhibition(%): 77.8%

## CCCCc1nc2cc(-c3ccccc3)c(C3OCCCO3)nc2n1Cc1ccc(-c2ccccc2-c2nn[nH]n2)cc1 [Example 4, 2-butyl-5-(1,3-dioxan-2-yl)-6-phenyl-3-[2'-(1-tetrazol-5-yl)-biphenyl-4-ylmethyl]-3H-imidazo[4,5-b]pyridine]
[2]
  change in vivo at 3 mg: -33%
[4]
  Binding Inhibition(%): 60.9%

## CCCCc1nc2cc(-c3cccc[n+]3[O-])c(C(OC)OC)nc2n1Cc1ccc(-c2ccccc2-c2nn[nH]n2)cc1 [Example 21, 2-butyl-5-dimethoxymethyl-6-(1-oxy-pyridin-2-yl)-3-[2'-(1H-tetrazol-5-yl)-biphenyl-4-ylmethyl]-3H-imidazo[4,5-b]pyridine]
[2]
  change in vivo at 3 mg: -20%
[4]
  Binding Inhibition(%): 92.2%

## CCCCc1nc2cc(-c3cc[n+]([O-])cc3)c(C(OC)OC)nc2n1Cc1ccc(-c2ccccc2-c2nn[nH]n2)cc1 [Example 25, 2-butyl-5-dimethoxymethyl-6-(1-oxy-pyridin-4-yl)-3-[2'-(1H-tetrazol-5-yl)-biphenyl-4-ylmethyl)-3H-imidazo[4,5-b]pyridine]
[2]
  change in vivo at 3 mg: -29%
[4]
  Binding Inhibition(%): 97.0%

## CCCCc1nc2cc(-c3ccc(OC)cc3)c(C(OC)OC)nc2n1Cc1ccc(-c2ccccc2-c2nn[nH]n2)cc1 [Example 6, 2-butyl-5-dimethoxymethyl-6-(4-methoxyphenyl-1-yl)-3-[2'-(1H-tetrazol-5-yl)-biphenyl-4-ylmethyl]-3H-imidazo[4,5-b]pyridine]
[2]
  change in vivo at 3 mg: -25%
[4]
  Binding Inhibition(%): 49.0%

## CCCCc1nc2cc(CCC(=O)OCC)c(C(OC)OC)nc2n1Cc1ccc(-c2ccccc2-c2nn[nH]n2)cc1 [Example 13, 2-butyl-5-dimethoxymethyl-6-[2-(ethoxycarbonyl)-ethyl-1-yl]-3-[2'-(1H-tetrazol-5-yl)-biphenyl-4-ylmethyl]-3H-imidazo[4,5-b]pyridine]
[2]
  change in vivo at 3 mg: -32%
[4]
  Binding Inhibition(%): 95.0%

## CCCCc1nc2cc(-c3ccccc3[N+](=O)[O-])c(C(OC)OC)nc2n1Cc1ccc(-c2ccccc2-c2nn[nH]n2)cc1 [Example 19, 2-butyl-5-dimethoxymethyl-6-(2-nitrophenyl-1-yl)-3-[2'-(1H-tetrazol-5-yl)-biphenyl-4-ylmethyl]-3H-imidazo[4,5-b]pyridine]
[2]
  change in vivo at 3 mg: -29%
[4]
  Binding Inhibition(%): 70.9%
